Test results reported in patent publication US20260174875A1 (Novo Nordisk A/S, priority 2023, published 2026).
Read-outs that look alike come from different tables or passages of the source. Numbered stars: 1 amine (or outer) side, 2 acyl side, 3 side chain; on linkers, the order of the positions; unused ones are H or OH. Square brackets hold non-standard residues; d marks the D form. Side chains are listed from the residue outwards. * marks the point of attachment. C20 diacid = O=C(O)CCCCCCCCCCCCCCCCCCC(=O)*; C18 diacid = O=C(O)CCCCCCCCCCCCCCCCC(=O)*; C16 diacid = O=C(O)CCCCCCCCCCCCCCC(=O)*; γGlu = O=C(O)[C@H](CCC(=O)[*:2])N[*:1]; AEEA = NCCOCCOCC(=O)O; Aib = CC(C)(N)C(=O)O

What was measured:
[1] = Pharmacokinetic study in minipigs (i.v.); type: in vivo, Göttingen minipigs; conditions: female, Göttingen, minipig, plasma, iv; i.v. administration to minipigs, 2 nmol/kg; read-out: Terminal half-life t1/2 (converted)
Method: This is done in a pharmacokinetic (PK) study, where the terminal half-life (t1/2) of the compound or derivative in question is determined. By terminal half-life is meant the time it takes to halve a certain plasma concentration in the terminal elimination phase.
Female Göttingen minipigs, obtained from Ellegaard Göttingen Minipigs (Dalmose, Denmark), approximately 8-12 months of age and weighing approximately 20-30 kg were used in the studies.
After three weeks of acclimatisation two permanent central venous catheters were implanted in vena cava caudalis in each animal. The animals were allowed at least 10 days recovery after the surgery and were then used for repeated pharmacokinetic studies with a suitable wash-out period between successive dosing.
The compounds of the invention were formulated (40 nmol/ml) in the following vehicle: 8 mM phosphate; 250 mM glycerol; 0.007% polysorbate 20, pH 7.4.
Blood samples (for example 1.3 ml) were collected in EDTA (1.3 ml tube containing K3EDTA to yield 1.6 mg K3EDTA/ml blood) coated tubes and then centrifuged at 4° C. and 2000×g for 10 minutes.
Plasma was within 30 min after centrifugation pipetted into Micronic tubes stored on dry ice and were afterwards kept at −20° C. until analysed for plasma concentration of the compounds using LCMS.
Plasma concentrations of the peptides of the invention were assayed by plasma protein precipitation and analysed by liquid chromatography mass spectrometry (LC-MS). Calibrators were prepared by spiking blank plasma from minipigs with the compounds in the typical range from 0.05 to 200 nM. […] The supernatant was diluted with 1 volumes of Milli-Q water containing 1% Formic acid before injection on the LC-MS system. Individual plasma concentration-time profiles were analysed by a non-compartmental pharmacokinetic method (NCA) in Phoenix v. 6.4 (Pharsight Inc., Mountain View, CA, USA), and the resulting terminal half-lives (harmonic mean) determined. The LC-MS analysis was carried out using a TurboFlow HPLC system from Thermo Fisher Scientific (Bremen, Germany) coupled to either a Q Exactive Orbitrap or Altis Triple Quadrupole (TQ) Mass Spectrometer. […] The Orbitrap mass spectrometer were operating in positive ionization mode with a spray voltage of 4.0 kV using Parallel Reaction Monitoring scan mode using 5 m/z isolation windows on the most abundant charge state of the compounds with a resolution of 35K on the Orbitrap MS.
The data was processed using the Quan Browser in the Xcalibur software from Thermo Fisher Scientific (Bremen, Germany) by fitted the data to linear calibration curves (weighed 1/x^2), used for calculating the concentration in the plasma samples. Quality control samples were included.

[2] = molecular target: T1, human GLP-1 receptor (hGLP-1R) (Homo sapiens, UniProt P43220); experiment: GLP-1 receptor assay, method B (CRE-luciferase reporter, BHK cells, 384-well); type: cell-based
T1 construct: expressed in transfected cells
T1 sequence (P43220 24-463): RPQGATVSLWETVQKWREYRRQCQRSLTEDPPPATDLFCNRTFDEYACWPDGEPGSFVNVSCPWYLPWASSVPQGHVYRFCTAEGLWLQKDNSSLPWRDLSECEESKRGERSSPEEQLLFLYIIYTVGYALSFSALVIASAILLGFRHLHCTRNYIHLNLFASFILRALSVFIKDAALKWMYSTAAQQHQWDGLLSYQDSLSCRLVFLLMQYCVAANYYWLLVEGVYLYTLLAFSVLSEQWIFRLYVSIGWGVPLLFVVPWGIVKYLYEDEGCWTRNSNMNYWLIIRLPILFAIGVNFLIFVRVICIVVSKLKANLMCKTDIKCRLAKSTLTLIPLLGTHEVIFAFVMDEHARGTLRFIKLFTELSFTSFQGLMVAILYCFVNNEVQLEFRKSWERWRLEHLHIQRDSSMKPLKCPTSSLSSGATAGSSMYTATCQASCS
Method: (§1) To assess how the activation of the receptors is potentially influenced by the presence of human serum albumin (HSA), the in vitro assays were performed in the absence of HSA and presence of 1% (w/v) HSA.
Cells at approximately 80-90% confluence were washed once in PBS (Gibco 14190-094) and loosened from the cell flasks with Versene (Gibco, 15040-033). […] Cells were aliquoted and stored at −180° C. until use.
(§2) The assay buffer consisted of DMEM without phenol red (Gibco, 11880-028) supplemented with 1× GlutaMAX (Gibco, 35050-038), 10 mM HEPES (Gibco, 15630-056), 1% (w/v) ovalbumin (Sigma, A5503) and 0.1% (v/v) Pluronic F-68 (Gibco, 24040-032) either with HSA or without HSA (Sigma, A9511).
Serial dilutions were transferred to a 384-well assay plate (PerkinElmer/Revvity, 6007688) and mixed with an equal volume (10 μL) of assay buffer without or with 3% (w/v) HSA (Sigma, A-9511). Frozen stocks of hGLP-1R BHK Cre-Luc cells were thawed in a 37° C. water bath, washed once in PBS (Gibco 14190-094), diluted to 1.5×10^5 (1.5E+5) cells/mL in assay buffer (without HSA) and added (10 μL) to each well of the 384-well assay plate. After a short centrifugation, the assay plates were incubated for 3 hours at 37° C. in 5% CO2 and let to equilibrated at room temperature for 10 minutes before the addition of 30 μL steadylite Plus™ PerkinElmer/Revvity, 6066759) per well. Plates were sealed and incubated at room temperature with gentle shaking for 30 minutes while protected from light. Luminescence was detected on a luminescence plate reader e.g. a Synergy 2 (BioTek).

[3] = molecular target: T2, human GIP receptor (hGIPR) (Homo sapiens, UniProt P48546); experiment: GIP receptor assay, method B (CRE-luciferase reporter, BHK cells, 384-well); type: cell-based
T2 construct: expressed in transfected cells
T2 sequence (P48546 22-466): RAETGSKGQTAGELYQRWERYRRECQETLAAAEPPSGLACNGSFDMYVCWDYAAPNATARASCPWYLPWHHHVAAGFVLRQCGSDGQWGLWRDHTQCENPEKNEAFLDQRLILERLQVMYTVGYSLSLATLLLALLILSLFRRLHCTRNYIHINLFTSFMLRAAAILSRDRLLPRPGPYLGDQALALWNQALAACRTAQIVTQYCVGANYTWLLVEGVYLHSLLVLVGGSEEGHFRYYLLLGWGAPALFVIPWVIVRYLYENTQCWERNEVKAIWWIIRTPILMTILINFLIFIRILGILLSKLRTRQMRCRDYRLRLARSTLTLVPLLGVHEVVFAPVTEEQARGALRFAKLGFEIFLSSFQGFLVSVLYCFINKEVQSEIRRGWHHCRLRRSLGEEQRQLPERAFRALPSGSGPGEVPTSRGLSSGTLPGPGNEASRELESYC
Method: as §1
Activation of the human GIP receptor leads to increased intra-cellular concentrations of cyclic AMP (cAMP) and the consequent transcription activation from promoters containing multiple copies of the cAMP response element (CRE). It is thus possible to measure GIP receptor activity using a CRE-luciferase reporter gene introduced into Baby Hamster Kidney (BHK) cells co-expressing the human GIP receptor.
Cells at about 80-90% confluency were washed once with PBS (Gibco 14190-094) and detached from the cell flasks with Versene (Gibco, 15040-066). After centrifugation, the cells were counted, resuspended and diluted to approximately 1.5-3.0×10^6 (1.5E+6 to 3.0E+6) cells/mL in Recovery Cell Culture Freezing Medium (Gibco, 12648-010) and stored at −180° C. in suitable aliquots until use.
as §2
Serial dilutions were transferred to a 384-well assay plate (PerkinElmer/Revvity, 6007688) and mixed with an equal volume (10 μL) of assay buffer without or with 3% HSA (Sigma, A-9511). Frozen stocks of hGIPR BHK Cre-Luc cells were thawed in a 37° C. water bath, washed once in PBS (Gibco 14190-094), diluted to 1.5×10^5 (1.5E+5) cells/mL in assay buffer (without HSA) and added (10 μL) to each well of the 384-well assay plate. After a short centrifugation, the assay plates were incubated for 3 hours at 37° C. in 5% CO2 and let to equilibrated at room temperature for 10 minutes before the addition of 30 μL steadylite Plus™ (PerkinElmer/Revvity, 6066759) per well. Plates were sealed and incubated at room temperature with gentle shaking for 30 minutes while protected from light. Luminescence was detected on a luminescence plate reader e.g. a Synergy 2 (BioTek).

[4] = molecular target: T3, human amylin receptor (hAMYR3) (Homo sapiens, UniProt O60896+P30988); experiment: Amylin receptor assay, method B (CRE-luciferase reporter, BHK cells); type: cell-based
T3 construct: host or cells: BHK cells (Hollex-1 line expressing hCTR(a) and CRE-Luc), further transfected with human RAMP3
T3 sequence (P30988 25-474): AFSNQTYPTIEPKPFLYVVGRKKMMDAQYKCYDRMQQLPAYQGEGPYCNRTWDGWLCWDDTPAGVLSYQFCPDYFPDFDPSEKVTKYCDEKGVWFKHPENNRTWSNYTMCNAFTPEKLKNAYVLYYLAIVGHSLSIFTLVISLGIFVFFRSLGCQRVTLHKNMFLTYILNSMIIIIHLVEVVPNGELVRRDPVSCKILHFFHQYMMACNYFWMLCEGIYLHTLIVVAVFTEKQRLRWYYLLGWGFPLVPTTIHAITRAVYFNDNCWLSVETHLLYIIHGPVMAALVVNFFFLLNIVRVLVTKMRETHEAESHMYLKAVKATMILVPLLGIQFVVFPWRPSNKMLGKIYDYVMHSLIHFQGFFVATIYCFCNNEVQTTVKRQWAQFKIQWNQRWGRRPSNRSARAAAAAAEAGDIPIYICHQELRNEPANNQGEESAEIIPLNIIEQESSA
T3 sequence (O60896 24-148): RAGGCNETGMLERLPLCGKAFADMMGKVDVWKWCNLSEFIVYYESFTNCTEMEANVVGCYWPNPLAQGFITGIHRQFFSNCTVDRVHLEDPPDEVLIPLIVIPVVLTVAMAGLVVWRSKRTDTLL
Method in brief: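 BHK cells with CRE-luciferase, co-expressing hAMYR3 and transfected with human RAMP3, seeded overnight, then exposed 3 h at 37 °C to compound. Buffer: phenol red-free DMEM, 10 mM HEPES, 1% ovalbumin, with 0% or 1% (w/v) HSA. Luminescence read after 30 min with steadylite Plus.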

| half-life [1] | Substance | also measured |
| --- | --- | --- |
| 81 h | H[Aib]HGTFTSDYSILLEEQAAREFIEWLLAGGPSK([AEEA-AEEA-γGlu-C16 diacid])GAPPPSGGGEASELSTAALGRLSAELHELATLPRTETGSGSP-NH2 [Compound 12] | – |
| 122 h | H[Aib]HGTFTSDYSILLEEQAAREFIEWLLAGGPSK([AEEA-AEEA-γGlu-C18 diacid])GAPPPSGGGEASELSTAALGRLSAELHELATLPRTETGSGSP-NH2 [Compound 15] | – |
| 122 h | H[Aib]HGTFTSDYSILLEEQAAREFIEWLLAGGPSK([AEEA-AEEA-γGlu-C18 diacid])GAPPPSGGGEASHLSTAQTARLSAELHQLATLPRTETGSGSP-NH2 [compound 101] | – |
| 117 h | H[Aib]HGTFTSDYSILLEEQAAREFIEWLLAGGPSK([AEEA-AEEA-γGlu-C18 diacid])GEASQLSTAALGRLSAELHQLATLPRTETGSGSP-NH2 [Compound 64] | – |
| 138 h | H[Aib]HGTFTSDYSILLEEQAAREFIEWLLAGGPSK([AEEA-AEEA-γGlu-C20 diacid])GAPPPSGGGEASELSTAALGRLSAELHELATLPRTETGSGSP-NH2 [Compound 16] | – |
| 43 h | H[Aib]HGTFTSDYSILLEEQAAREFIEWLLAGGPSSGAGQAPGQAPGASHLSTAQTQRLSAELHRLK([AEEA-AEEA-γGlu-C18 diacid])TLPRTETGSGSP-NH2 [Compound 91] | – |
| 69 h | H[Aib]HGTFTSDYSILLEEQAAREFIEWLLAGGPSSGAGQAPGQAPLASHLSTAQTQRLSAELHK([AEEA-AEEA-γGlu-C18 diacid])LATLPRTETGSGSP-NH2 [Compound 93] | – |
| 119 h | Y[Aib]EGTFTSDYSILLEEQAAREFIEWLLAGGPSK([AEEA-AEEA-γGlu-C16 diacid])GEASELSTAALGRLSAELHELATLPRTETGSGSP-NH2 [Compound 11] | – |
| 125 h | Y[Aib]EGTFTSDYSILLEEQAAREFIEWLLAGGPSRGEASHLSTAQTQRLSAELHK([AEEA-AEEA-γGlu-C18 diacid])LATLPRTETGSGSP-NH2 [compound 68] | – |
| 120 h | Y[Aib]EGTFTSDYSILLEEQAAREFIEWLLAGGPSSGAGQAPGQAPGASHLSTAQTQRLSAELHK([AEEA-AEEA-γGlu-C18 diacid])LATLPRTETGSGSP-NH2 [compound 52] | – |
| 115 h | Y[Aib]EGTFTSDYSILLEEQAAREFIEWLLAGGPSSGAGQAPGQAPGASHLSTAQTQRLSAELHK([AEEA-AEEA-γGlu-C20 diacid])LATLPRTETGSGSP-NH2 [Compound 115] | EC50 ([2]; hGLP-1R Potency, 1% HSA, EC50, methods B, in the presence of 1% HSA): 0.0929 nM; EC50 ([2]; method B, absence of HSA, read-out: hGLP-1R Potency, no HSA, EC50): 0.0194 nM; EC50 ([3]; hGIPR Potency, 1% HSA, EC50, methods B, in the presence of 1% HSA): 0.0389 nM; EC50 ([3]; method B, absence of HSA, read-out: hGIPR Potency, no HSA, EC50): 0.0103 nM; EC50 ([4]; hAMYR3 Potency, 1% HSA, EC50, methods B, in the presence of 1% HSA): 0.551 nM; EC50 ([4]; method B, absence of HSA, read-out: hAMYR3 Potency, no HSA, EC50): 0.00713 nM |
| 90 h | Y[Aib]EGTFTSDYSILLEEQAAREFIEWLLAGGPSSGAGQAPGQAPGASHLSTAQTQRLSAELHRLATLPK([AEEA-AEEA-γGlu-C18 diacid])TETGSGSP-NH2 [Compound 57] | – |
| 88 h | Y[Aib]EGTFTSDYSILLEEQAAREFIEWLLAGGPSSGAGQAPGQAPGASHLSTAQTQRLSAK([AEEA-AEEA-γGlu-C18 diacid])LHRLATLPRTETGSGSP-NH2 [compound 55] | – |
| 97 h | Y[Aib]EGTFTSDYSILLEEQAAREFIEWLLAGGPSSGAGQAPGQAPLASHLSTAQTQRLSAELHK([AEEA-AEEA-γGlu-C18 diacid])LATLPRTETGSGSP-NH2 [compound 58] | – |

| Substance | half-life [1] | also measured |
| --- | --- | --- |
| H[Aib]HGTFTSDYSILLEEQAAREFIEWLLAGGPSK([AEEA-AEEA-γGlu-C16 diacid])GAPPPSGGGEASHLSTAQTARLSAELHRLADLPRTETGSGSP-NH2 [Compound 61] | 61 h | – |
